Data reported in ChEMBL document CHEMBL3885881, “DrugMatrix”.

Organism: Rattus norvegicus
Test: DrugMatrix - Regimen: Daily Repeat
Assay type: toxicity, organism-based, Sprague-Dawley
Parameters: regimen Daily Repeat, gender Male, age 6-8 weeks
Conditions: in vivo, iv, vehicle 100 % SALINE; for URIC ACID / ALANINE AMINOTRANSFERASE / ALBUMIN / ALKALINE PHOSPHATASE / ASPARTATE AMINOTRANSFERASE / BLOOD UREA NITROGEN / CARBON DIOXIDE / CHLORIDE / CHOLESTEROL / CREATINE PHOSPHOKINASE / CREATININE / GLUCOSE / LIPASE / PHOSPHORUS / POTASSIUM / SODIUM / TOTAL BILIRUBIN / TOTAL PROTEIN: tissue Plasma; for ABSOLUTE BASOPHIL / ABSOLUTE EOSINOPHIL / ABSOLUTE LYMPHOCYTE / ABSOLUTE MONOCYTE / ABSOLUTE SEGMENTED NEUTROPHIL / BASOPHIL / EOSINOPHIL / ERYTHROCYTE COUNT / HEMATOCRIT / HEMOGLOBIN / LYMPHOCYTE / MEAN CORPUSCULAR HEMOGLOBIN / MEAN CORPUSCULAR HEMOGLOBIN CONCENTRATION / MONOCYTE / NEUTROPHIL / NUCLEATED RED BLOOD CELLS / PLATELET COUNT: tissue Blood
[1] = 5 mg/kg, 120 h, dose level High, time 5 day
[2] = […], 72 h, dose 1.5 mg/Kg, dose level Low, time 3 day
[3] = […], 120 h, dose 1.5 mg/Kg, dose level Low, time 5 day

CCc1c2c(nc3ccc(OC(=O)N4CCC(N5CCCCC5)CC4)cc13)-c1cc3c(c(=O)n1C2)COC(=O)[C@]3(O)CC [IRINOTECAN]
URIC ACID (5 mg/kg, 72 h, dose level High, time 3 day): 1.77 mg/dL
ABSOLUTE BASOPHIL [1]: 0 CELLS/uL
ABSOLUTE EOSINOPHIL [1]: 0 CELLS/uL
ABSOLUTE LYMPHOCYTE [1]: 10356 CELLS/uL
ABSOLUTE MONOCYTE [1]: 74 CELLS/uL
ABSOLUTE SEGMENTED NEUTROPHIL [1]: 470 CELLS/uL
BASOPHIL [1]: 0%
EOSINOPHIL [1]: 0%
ERYTHROCYTE COUNT [1]: 6.32 x10E6/uL
HEMATOCRIT [1]: 37.73%
HEMOGLOBIN [1]: 15.1 G/DL
LYMPHOCYTE [1]: 95%
MEAN CORPUSCULAR HEMOGLOBIN [1]: 23.93 pg
MEAN CORPUSCULAR HEMOGLOBIN CONCENTRATION [1]: 40.07 G/DL
MONOCYTE [1]: 0.67%
NEUTROPHIL [1]: 4.33%
NUCLEATED RED BLOOD CELLS [1]: 0 /100WBC
PLATELET COUNT [1]: 1232.33 x10E3/uL
ALANINE AMINOTRANSFERASE [1]: 38 u/L
ALBUMIN [1]: 4.37 G/DL
ALKALINE PHOSPHATASE [1]: 299.33 u/L
ASPARTATE AMINOTRANSFERASE [1]: 100.33 u/L
BLOOD UREA NITROGEN [1]: 21.33 mg/dL
CARBON DIOXIDE [1]: 22.67 mmol/L
CHLORIDE [1]: 100 MEQ/L
CHOLESTEROL [1]: 65 mg/dL
CREATINE PHOSPHOKINASE [1]: 991 u/L
CREATININE [1]: 0.24 mg/dL
GLUCOSE [1]: 171.67 mg/dL
LIPASE [1]: 9.33 u/L
PHOSPHORUS [1]: 12.93 mg/dL
POTASSIUM [1]: 6.75 MEQ/L
SODIUM [1]: 142.97 MEQ/L
TOTAL BILIRUBIN [1]: 0.13 mg/dL
TOTAL PROTEIN [1]: 6.67 G/DL
URIC ACID [1]: 2.8 mg/dL
ABSOLUTE BASOPHIL [2]: 0 CELLS/uL
ABSOLUTE EOSINOPHIL [2]: 215 CELLS/uL
ABSOLUTE LYMPHOCYTE [2]: 8779 CELLS/uL
ABSOLUTE MONOCYTE [2]: 139.33 CELLS/uL
ABSOLUTE SEGMENTED NEUTROPHIL [2]: 933.33 CELLS/uL
BASOPHIL [2]: 0%
EOSINOPHIL [2]: 2%
ERYTHROCYTE COUNT [2]: 5.76 x10E6/uL
HEMATOCRIT [2]: 36.73%
HEMOGLOBIN [2]: 14.23 G/DL
LYMPHOCYTE [2]: 87.33%
MEAN CORPUSCULAR HEMOGLOBIN [2]: 24.73 pg
MEAN CORPUSCULAR HEMOGLOBIN CONCENTRATION [2]: 38.77 G/DL
MONOCYTE [2]: 1.33%
NEUTROPHIL [2]: 9.33%
NUCLEATED RED BLOOD CELLS [2]: 0 /100WBC
PLATELET COUNT [2]: 1185.67 x10E3/uL
ALANINE AMINOTRANSFERASE [2]: 45.33 u/L
ALBUMIN [2]: 4.23 G/DL
ALKALINE PHOSPHATASE [2]: 367.67 u/L
ASPARTATE AMINOTRANSFERASE [2]: 79.33 u/L
BLOOD UREA NITROGEN [2]: 14.67 mg/dL
CARBON DIOXIDE [2]: 27 mmol/L
CHLORIDE [2]: 99 MEQ/L
CHOLESTEROL [2]: 76.33 mg/dL
CREATINE PHOSPHOKINASE [2]: 268.33 u/L
CREATININE [2]: 0.18 mg/dL
GLUCOSE [2]: 157 mg/dL
LIPASE [2]: 9.67 u/L
PHOSPHORUS [2]: 15.07 mg/dL
POTASSIUM [2]: 6.67 MEQ/L
SODIUM [2]: 143.87 MEQ/L
TOTAL BILIRUBIN [2]: 0.17 mg/dL
URIC ACID [2]: 1.7 mg/dL
ABSOLUTE BASOPHIL [3]: 0 CELLS/uL
ABSOLUTE EOSINOPHIL [3]: 58.33 CELLS/uL
ABSOLUTE LYMPHOCYTE [3]: 15491.67 CELLS/uL
ABSOLUTE MONOCYTE [3]: 116.67 CELLS/uL
ABSOLUTE SEGMENTED NEUTROPHIL [3]: 2000 CELLS/uL
BASOPHIL [3]: 0%
EOSINOPHIL [3]: 0.33%
HEMATOCRIT [3]: 36.13%
HEMOGLOBIN [3]: 14.3 G/DL
LYMPHOCYTE [3]: 87.67%
MEAN CORPUSCULAR HEMOGLOBIN [3]: 24 pg
MEAN CORPUSCULAR HEMOGLOBIN CONCENTRATION [3]: 39.57 G/DL
MONOCYTE [3]: 0.67%
NEUTROPHIL [3]: 11.33%
NUCLEATED RED BLOOD CELLS [3]: 0 /100WBC
PLATELET COUNT [3]: 1288 x10E3/uL
ALANINE AMINOTRANSFERASE [3]: 54 u/L
ALBUMIN [3]: 4.03 G/DL
ALKALINE PHOSPHATASE [3]: 415.33 u/L
ASPARTATE AMINOTRANSFERASE [3]: 101 u/L
BLOOD UREA NITROGEN [3]: 15.67 mg/dL
CARBON DIOXIDE [3]: 26 mmol/L
CHLORIDE [3]: 101.33 MEQ/L
CHOLESTEROL [3]: 68.67 mg/dL
CREATINE PHOSPHOKINASE [3]: 578.67 u/L
CREATININE [3]: 0.21 mg/dL
GLUCOSE [3]: 151 mg/dL
LIPASE [3]: 9.67 u/L
PHOSPHORUS [3]: 13.47 mg/dL
POTASSIUM [3]: 6.54 MEQ/L
SODIUM [3]: 146.17 MEQ/L
TOTAL BILIRUBIN [3]: 0.13 mg/dL
TOTAL PROTEIN [3]: 5.93 G/DL
URIC ACID [3]: 1.8 mg/dL
